According to article PMC7316778 (Nature Communications, 2020):
Where “and” joins values, the source holds several entries; their conditions need not be identical. Equal values may be shown once. Read-outs that look alike come from different tables or passages of the source.

Columns and labels:
NUAK1 (ARK5) = target: T1, NUAK1 (ARK5) (Homo sapiens, UniProt O60285); assay: SelectScreen kinase assay
T1 sequence (O60285 1-661): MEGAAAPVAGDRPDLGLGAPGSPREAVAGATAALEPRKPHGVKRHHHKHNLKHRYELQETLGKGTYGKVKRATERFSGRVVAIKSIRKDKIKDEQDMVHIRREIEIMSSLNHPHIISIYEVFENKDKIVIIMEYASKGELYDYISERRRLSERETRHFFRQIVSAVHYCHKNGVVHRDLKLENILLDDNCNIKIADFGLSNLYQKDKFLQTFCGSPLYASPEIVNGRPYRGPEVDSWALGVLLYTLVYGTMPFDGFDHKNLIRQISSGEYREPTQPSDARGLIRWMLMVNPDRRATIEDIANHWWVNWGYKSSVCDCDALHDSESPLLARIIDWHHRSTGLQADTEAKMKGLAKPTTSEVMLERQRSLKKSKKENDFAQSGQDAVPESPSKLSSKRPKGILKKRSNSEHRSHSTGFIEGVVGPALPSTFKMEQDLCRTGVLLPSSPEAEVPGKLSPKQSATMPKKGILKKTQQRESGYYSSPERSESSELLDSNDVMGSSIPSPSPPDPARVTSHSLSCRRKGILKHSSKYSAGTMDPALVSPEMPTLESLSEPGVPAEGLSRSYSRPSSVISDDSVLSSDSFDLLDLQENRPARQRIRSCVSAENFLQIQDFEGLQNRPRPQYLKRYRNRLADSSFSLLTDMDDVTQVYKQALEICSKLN
Description: (§1) Selectivity profiling assays were performed by the Invitrogen SelectScreen™ Services. […] The concentration of ATP was selected to be equal to the KM, unless indicated otherwise.

EPHA8 = EPHA8 (Homo sapiens, UniProt P29322); assay: SelectScreen kinase assay
Description: as §1

STK25 (YSK1) = STK25 (YSK1) (Homo sapiens, UniProt O00506); assay: SelectScreen kinase assay
Description: as §1

BLK = BLK (Homo sapiens, UniProt P51451); assay: SelectScreen kinase assay
Description: as §1

PLK4 = target: T2, PLK4 (Homo sapiens, UniProt O00444); assay: SelectScreen kinase assay
T2 sequence (O00444 1-970): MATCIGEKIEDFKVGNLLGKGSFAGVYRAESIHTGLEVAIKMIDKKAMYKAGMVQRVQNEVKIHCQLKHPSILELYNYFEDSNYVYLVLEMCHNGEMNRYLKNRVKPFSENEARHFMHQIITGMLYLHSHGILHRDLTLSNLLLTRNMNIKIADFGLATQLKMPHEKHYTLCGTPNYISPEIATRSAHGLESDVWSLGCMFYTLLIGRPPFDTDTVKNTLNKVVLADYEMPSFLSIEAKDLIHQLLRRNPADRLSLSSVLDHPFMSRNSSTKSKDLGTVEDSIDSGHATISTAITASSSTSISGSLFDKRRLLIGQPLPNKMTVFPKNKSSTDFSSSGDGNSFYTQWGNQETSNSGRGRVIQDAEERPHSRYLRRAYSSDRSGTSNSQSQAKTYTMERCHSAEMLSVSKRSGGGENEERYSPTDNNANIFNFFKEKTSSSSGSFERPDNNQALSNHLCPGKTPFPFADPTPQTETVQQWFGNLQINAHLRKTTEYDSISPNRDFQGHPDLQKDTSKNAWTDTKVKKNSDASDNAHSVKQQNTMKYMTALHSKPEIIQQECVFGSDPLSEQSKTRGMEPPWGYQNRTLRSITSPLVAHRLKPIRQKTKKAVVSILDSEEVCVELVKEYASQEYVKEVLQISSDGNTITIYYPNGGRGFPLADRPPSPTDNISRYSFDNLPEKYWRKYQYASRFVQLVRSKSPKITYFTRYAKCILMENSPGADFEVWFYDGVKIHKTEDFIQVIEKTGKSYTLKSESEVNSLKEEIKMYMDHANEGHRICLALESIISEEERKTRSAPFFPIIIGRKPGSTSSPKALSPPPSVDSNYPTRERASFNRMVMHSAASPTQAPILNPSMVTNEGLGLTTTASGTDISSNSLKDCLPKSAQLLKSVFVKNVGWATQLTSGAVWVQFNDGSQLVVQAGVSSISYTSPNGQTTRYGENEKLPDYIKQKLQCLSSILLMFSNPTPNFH
Description: as §1

FLT1 (VEGFR1) = FLT1 (VEGFR1) (Homo sapiens, UniProt P17948); assay: SelectScreen kinase assay
Description: as §1

AAK1 = AAK1 (Homo sapiens, UniProt Q2M2I8); assay: SelectScreen kinase assay
Description: as §1

GSK3B (GSK3 beta) = GSK3B (GSK3 beta) (Homo sapiens, UniProt P49841); assay: SelectScreen kinase assay
Description: as §1

WT HL-60 cells = assay: CD11b surface expression, PMA-induced macrophage differentiation; assay type: cell-based, human; settings: Figure 6d
[1] = 1 h, 1 μM WEL028, 1 h preincubation

FLT1 (VEGFR1), sequence (P17948 27-1338): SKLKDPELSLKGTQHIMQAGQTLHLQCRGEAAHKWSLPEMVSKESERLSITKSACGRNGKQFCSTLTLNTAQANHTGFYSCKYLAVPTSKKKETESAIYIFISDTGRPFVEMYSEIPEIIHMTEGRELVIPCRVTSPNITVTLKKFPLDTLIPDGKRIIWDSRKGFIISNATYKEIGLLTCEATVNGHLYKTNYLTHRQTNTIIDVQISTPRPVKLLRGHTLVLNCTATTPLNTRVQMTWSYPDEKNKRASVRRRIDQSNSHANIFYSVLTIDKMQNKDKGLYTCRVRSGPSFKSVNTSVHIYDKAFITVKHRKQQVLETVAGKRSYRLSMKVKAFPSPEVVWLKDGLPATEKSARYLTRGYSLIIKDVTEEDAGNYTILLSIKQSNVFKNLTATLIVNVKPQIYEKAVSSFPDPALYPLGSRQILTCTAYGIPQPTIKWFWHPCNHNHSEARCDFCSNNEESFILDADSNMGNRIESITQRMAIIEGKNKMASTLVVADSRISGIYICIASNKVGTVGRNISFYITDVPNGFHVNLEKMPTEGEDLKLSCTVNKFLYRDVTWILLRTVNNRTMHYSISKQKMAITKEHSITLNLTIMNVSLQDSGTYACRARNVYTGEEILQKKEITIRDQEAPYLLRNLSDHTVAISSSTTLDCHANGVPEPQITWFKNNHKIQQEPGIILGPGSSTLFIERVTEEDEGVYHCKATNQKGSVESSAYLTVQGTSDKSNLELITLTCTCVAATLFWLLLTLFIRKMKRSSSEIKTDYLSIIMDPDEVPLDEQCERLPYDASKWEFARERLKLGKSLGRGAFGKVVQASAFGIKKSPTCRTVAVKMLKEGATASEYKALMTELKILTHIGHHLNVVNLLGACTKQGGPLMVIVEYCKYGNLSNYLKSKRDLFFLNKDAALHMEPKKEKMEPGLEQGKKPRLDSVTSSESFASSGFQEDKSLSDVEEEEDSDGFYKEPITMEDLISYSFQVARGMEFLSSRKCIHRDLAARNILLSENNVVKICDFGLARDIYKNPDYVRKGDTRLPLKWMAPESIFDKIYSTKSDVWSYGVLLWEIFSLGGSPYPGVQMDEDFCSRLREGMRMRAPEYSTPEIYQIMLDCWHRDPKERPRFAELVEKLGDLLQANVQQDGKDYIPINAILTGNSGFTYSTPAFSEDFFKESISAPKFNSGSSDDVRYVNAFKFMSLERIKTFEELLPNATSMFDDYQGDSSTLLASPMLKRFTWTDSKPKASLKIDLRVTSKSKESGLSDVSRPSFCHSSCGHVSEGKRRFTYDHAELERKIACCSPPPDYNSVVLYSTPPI
BLK, sequence (P51451 whole entry): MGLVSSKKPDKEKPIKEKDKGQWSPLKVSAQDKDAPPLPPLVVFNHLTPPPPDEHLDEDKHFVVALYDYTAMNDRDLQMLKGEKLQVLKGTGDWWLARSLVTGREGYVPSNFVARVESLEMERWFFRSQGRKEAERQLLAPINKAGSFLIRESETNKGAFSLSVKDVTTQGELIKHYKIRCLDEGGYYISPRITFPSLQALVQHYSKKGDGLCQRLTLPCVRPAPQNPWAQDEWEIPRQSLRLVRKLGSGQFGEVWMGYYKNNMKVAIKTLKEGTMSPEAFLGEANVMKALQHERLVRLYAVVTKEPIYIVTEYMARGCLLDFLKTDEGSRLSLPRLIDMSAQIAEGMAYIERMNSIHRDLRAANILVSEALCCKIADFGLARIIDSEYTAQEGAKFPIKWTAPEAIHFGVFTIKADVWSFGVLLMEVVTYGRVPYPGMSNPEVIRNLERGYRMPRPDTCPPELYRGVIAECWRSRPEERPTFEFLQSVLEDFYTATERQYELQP
AAK1, sequence (Q2M2I8 whole entry): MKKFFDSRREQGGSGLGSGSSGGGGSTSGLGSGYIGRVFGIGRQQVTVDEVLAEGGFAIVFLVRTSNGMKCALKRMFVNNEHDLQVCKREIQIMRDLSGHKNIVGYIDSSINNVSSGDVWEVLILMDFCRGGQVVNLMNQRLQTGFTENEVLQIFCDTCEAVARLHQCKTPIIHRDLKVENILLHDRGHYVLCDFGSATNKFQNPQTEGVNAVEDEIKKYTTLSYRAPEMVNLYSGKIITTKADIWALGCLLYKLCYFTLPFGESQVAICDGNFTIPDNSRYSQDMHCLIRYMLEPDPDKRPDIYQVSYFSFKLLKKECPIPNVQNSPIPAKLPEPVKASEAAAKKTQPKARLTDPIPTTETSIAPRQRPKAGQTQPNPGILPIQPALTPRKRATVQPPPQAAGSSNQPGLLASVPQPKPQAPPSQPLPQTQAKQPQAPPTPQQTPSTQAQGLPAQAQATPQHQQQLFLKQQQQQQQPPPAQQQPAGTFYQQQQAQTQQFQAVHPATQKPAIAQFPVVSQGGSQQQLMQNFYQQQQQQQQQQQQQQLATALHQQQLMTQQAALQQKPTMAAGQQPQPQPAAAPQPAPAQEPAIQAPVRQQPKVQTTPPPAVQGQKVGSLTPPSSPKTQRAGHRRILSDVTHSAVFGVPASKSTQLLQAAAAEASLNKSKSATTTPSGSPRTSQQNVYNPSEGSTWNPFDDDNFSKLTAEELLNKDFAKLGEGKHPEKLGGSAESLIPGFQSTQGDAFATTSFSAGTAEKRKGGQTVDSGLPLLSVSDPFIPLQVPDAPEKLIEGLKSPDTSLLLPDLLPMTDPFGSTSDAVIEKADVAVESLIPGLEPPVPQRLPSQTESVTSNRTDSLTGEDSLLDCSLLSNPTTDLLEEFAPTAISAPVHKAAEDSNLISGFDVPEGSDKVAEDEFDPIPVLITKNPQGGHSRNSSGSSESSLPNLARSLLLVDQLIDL
EPHA8, sequence (P29322 28-1005): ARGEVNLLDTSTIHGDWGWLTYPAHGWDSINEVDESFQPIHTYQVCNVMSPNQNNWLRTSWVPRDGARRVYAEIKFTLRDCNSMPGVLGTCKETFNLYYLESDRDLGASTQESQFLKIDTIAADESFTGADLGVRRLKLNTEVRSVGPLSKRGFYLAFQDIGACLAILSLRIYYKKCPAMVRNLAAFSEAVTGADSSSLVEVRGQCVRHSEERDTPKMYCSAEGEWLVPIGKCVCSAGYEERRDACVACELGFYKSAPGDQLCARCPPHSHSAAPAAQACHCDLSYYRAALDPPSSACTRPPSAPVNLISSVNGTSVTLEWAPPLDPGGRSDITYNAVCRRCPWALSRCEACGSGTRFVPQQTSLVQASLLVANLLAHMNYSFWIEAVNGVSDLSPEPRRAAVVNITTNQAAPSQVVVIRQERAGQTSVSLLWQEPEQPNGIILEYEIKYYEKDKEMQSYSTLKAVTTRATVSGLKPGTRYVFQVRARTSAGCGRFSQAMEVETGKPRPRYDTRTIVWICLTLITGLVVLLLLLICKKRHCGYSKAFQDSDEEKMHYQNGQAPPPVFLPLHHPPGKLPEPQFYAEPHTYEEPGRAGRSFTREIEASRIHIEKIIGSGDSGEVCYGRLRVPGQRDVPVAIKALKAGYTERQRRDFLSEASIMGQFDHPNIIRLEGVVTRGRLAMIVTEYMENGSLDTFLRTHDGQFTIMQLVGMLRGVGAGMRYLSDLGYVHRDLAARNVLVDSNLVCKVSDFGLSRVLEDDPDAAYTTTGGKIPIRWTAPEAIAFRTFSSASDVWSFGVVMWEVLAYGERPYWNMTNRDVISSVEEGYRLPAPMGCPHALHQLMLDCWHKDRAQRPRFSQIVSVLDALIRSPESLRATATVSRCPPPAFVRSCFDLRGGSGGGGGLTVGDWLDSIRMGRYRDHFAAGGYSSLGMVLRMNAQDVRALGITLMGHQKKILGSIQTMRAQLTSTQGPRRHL
STK25 (YSK1), sequence (O00506 whole entry): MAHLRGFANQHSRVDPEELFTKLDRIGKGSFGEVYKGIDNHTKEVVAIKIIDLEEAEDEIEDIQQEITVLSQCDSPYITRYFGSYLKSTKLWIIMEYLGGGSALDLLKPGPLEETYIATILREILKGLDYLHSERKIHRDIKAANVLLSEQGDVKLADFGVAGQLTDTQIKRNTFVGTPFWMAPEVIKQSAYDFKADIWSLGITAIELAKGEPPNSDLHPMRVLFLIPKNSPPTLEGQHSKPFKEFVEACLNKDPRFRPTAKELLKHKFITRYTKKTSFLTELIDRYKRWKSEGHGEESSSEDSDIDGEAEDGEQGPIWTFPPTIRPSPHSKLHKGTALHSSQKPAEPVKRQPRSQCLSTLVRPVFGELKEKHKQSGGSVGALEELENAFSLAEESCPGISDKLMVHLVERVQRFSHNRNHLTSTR
GSK3B (GSK3 beta), sequence (P49841 whole entry): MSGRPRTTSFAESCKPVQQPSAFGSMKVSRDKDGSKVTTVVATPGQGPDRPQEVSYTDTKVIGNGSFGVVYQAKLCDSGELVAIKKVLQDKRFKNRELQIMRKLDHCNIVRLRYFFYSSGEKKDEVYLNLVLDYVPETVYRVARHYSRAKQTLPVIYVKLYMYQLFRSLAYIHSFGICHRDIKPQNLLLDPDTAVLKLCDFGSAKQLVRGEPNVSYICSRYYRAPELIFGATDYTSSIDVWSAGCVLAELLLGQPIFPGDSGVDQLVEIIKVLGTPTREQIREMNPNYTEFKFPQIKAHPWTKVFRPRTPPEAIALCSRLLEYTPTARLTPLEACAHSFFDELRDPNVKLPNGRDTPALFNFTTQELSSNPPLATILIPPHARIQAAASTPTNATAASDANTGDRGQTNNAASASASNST

## C#CCOc1ccc(Nc2ncc(Cl)c(Nc3ccccc3NC(=O)C=C)n2)c(OC)c1 [Compound 6]
NUAK1 (ARK5); 1 μM WEL028, 1 h preincubation
  Inhibition (%): 35%
NUAK1 (ARK5); NUAK1 (ARK5), 1 µM, Adapta, ATP Km app, listed as WEL028, 1 µM
  Inhibition at 1 µM (%): 41%
NUAK1 (ARK5); read-out: Inhibition at 1 µM (%), NUAK1 (ARK5), 1 µM, Adapta, ATP Km app
  inhibition at 1 µM: 30%
EPHA8; 1 h
  inhibition at 1 µM: -7%
EPHA8; read-out: Inhibition at 1 µM (%)
  inhibition at 1 µM: -7%
STK25 (YSK1); 1 µM, ZLYTE, ATP Km app
  Inhibition at 1 µM (%): 15%
STK25 (YSK1); [1]
  inhibition at 1 µM: 5%
BLK; [1]
  inhibition at 1 µM: 0%
BLK; BLK, 1 µM, ZLYTE, ATP Km app, listed as WEL028, 1 µM
  Inhibition at 1 µM (%): 4% and -5%
PLK4
  IC50: 0.0251 µM
PLK4; [1]
  inhibition at 1 µM: 98%
PLK4; IC50 on that kinase divided by IC50 on FES^S700C
  Apparent fold selectivity: 6 fold
PLK4; read-out: Inhibition at 1 µM (%), PLK4, 1 µM, LanthaScreen Binding
  inhibition at 1 µM: 99%
FLT1 (VEGFR1); [1]
  inhibition at 1 µM: 36%
FLT1 (VEGFR1); FLT1 (VEGFR1), 1 µM, ZLYTE, ATP Km app, listed as WEL028, 1 µM
  Inhibition at 1 µM (%): 31%
FLT1 (VEGFR1); read-out: Inhibition at 1 µM (%), FLT1 (VEGFR1), 1 µM, ZLYTE, ATP Km app
  inhibition at 1 µM: 42%
AAK1; [1]
  inhibition at 1 µM: 33%
AAK1; AAK1, 1 µM, LanthaScreen Binding, listed as WEL028, 1 µM
  Inhibition at 1 µM (%): 30%
AAK1; read-out: Inhibition at 1 µM (%), AAK1, 1 µM, LanthaScreen Binding
  inhibition at 1 µM: 35%
GSK3B (GSK3 beta); [1]
  inhibition at 1 µM: 4%
GSK3B (GSK3 beta); read-out: Inhibition at 1 µM (%), GSK3B (GSK3 beta), 1 µM, ZLYTE, ATP Km app
  inhibition at 1 µM: 5%
WT HL-60 cells; WEL028 100 nM
  CD11b-positive cells (%): 79.481% and 79.680% and 76.989%
WT HL-60 cells; WEL028 1 µM
  CD11b-positive cells (%): 1.972% and 1.548% and 2.205%
